# According to publication PMC8550792, “Evolution of kinase polypharmacology across HSP90 drug discovery” (Cell Chemical Biology, 2021):
# Where two headings read alike, the source gives them in different places.
# Key:
# Assay in all cases: biochemical
# Type in all cases: biochemical
# 382 unique human kinases [1] = target: T1, 382 unique human kinases (Homo sapiens, UniProt Q96PN8); settings: kinase TSSK3/STK22C, compound 10 uM; for remaining activity at 10 µM: read-out: % Enzyme Activity (relative to DMSO controls)
# T1 construct: purchased Reaction Biology (HotSpot contract assay)
# T1 sequence (Q96PN8 1-268): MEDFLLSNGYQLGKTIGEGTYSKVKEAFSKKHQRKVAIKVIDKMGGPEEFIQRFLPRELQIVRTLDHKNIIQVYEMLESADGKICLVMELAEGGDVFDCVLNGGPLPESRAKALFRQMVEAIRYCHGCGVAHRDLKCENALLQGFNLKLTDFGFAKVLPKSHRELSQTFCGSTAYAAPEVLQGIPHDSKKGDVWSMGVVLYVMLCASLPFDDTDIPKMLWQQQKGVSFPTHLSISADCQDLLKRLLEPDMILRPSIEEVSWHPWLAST
# 382 unique human kinases [2] = target: T2, 382 unique human kinases (Homo sapiens, UniProt P07949); settings: kinase RET, compound 10 uM; for remaining activity at 10 µM: read-out: % Enzyme Activity (relative to DMSO controls)
# T2 construct: purchased Reaction Biology (HotSpot contract assay)
# 382 unique human kinases [3] = target: T3, 382 unique human kinases (Homo sapiens, UniProt O96017); settings: kinase CHK2, compound 10 uM; for remaining activity at 10 µM: read-out: % Enzyme Activity (relative to DMSO controls)
# T3 construct: purchased Reaction Biology (HotSpot contract assay)
# 382 unique human kinases [4] = target: T4, 382 unique human kinases (Homo sapiens, UniProt Q9UKE5); settings: TNIK, 10 uM; for remaining activity at 10 µM: read-out: % Enzyme Activity (relative to DMSO controls)
# T4 construct: purchased Reaction Biology (HotSpot contract assay)
# 382 unique human kinases [5] = target: T5, 382 unique human kinases (Homo sapiens, UniProt Q9Y4K4); settings: kinase KHS/MAP4K5, compound 10 uM; for remaining activity at 10 µM: read-out: % Enzyme Activity (relative to DMSO controls)
# T5 construct: purchased Reaction Biology (HotSpot contract assay)
# 382 unique human kinases [6] = target: T6, 382 unique human kinases (Homo sapiens, UniProt Q15569); settings: TESK1, compound at 10 uM, duplicate values; for remaining activity at 10 µM: read-out: % Enzyme Activity (relative to DMSO controls)
# T6 construct: purchased Reaction Biology (HotSpot contract assay)
# 382 unique human kinases [7] = target: T7, 382 unique human kinases (Homo sapiens, UniProt Q8IWQ3); settings: kinase BRSK2, compound 10 uM; for remaining activity at 10 µM: read-out: % Enzyme Activity (relative to DMSO controls)
# T7 construct: purchased Reaction Biology (HotSpot contract assay)
# T7 sequence (Q8IWQ3 1-736): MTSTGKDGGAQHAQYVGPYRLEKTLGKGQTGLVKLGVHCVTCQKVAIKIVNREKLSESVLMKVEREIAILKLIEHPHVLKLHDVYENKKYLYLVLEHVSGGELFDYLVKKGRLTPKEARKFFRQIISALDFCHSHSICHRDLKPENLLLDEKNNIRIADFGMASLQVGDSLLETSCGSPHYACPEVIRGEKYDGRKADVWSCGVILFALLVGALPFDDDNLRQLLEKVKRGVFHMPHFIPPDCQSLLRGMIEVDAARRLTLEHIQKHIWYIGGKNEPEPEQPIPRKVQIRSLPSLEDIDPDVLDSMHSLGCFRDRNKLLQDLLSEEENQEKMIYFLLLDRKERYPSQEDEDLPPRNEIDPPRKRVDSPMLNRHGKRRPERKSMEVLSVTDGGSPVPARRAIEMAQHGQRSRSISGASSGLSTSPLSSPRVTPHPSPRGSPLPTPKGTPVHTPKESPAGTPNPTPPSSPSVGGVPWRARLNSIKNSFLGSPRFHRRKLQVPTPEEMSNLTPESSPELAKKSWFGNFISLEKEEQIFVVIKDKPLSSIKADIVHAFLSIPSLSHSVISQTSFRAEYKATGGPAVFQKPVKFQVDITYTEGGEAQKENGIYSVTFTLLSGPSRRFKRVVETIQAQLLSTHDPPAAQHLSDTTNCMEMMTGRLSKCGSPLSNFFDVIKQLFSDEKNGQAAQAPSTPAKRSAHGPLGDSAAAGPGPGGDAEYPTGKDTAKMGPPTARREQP
# 382 unique human kinases [8] = target: T8, 382 unique human kinases (Homo sapiens, UniProt P49137); settings: MAPKAPK2, compound at 10 uM, duplicate values; for remaining activity at 10 µM: read-out: % Enzyme Activity (relative to DMSO controls)
# T8 construct: purchased Reaction Biology (HotSpot contract assay)
# 382 unique human kinases [9] = target: T9, 382 unique human kinases (Homo sapiens, UniProt Q6DT37); settings: DMPK2, 10 uM; for remaining activity at 10 µM: read-out: % Enzyme Activity (relative to DMSO controls)
# T9 construct: purchased Reaction Biology (HotSpot contract assay)
# 382 unique human kinases [10] = target: T10, 382 unique human kinases (Homo sapiens, UniProt Q00535); settings: for remaining activity at 10 µM: read-out: % Enzyme Activity (relative to DMSO controls)
# T10 construct: purchased Reaction Biology (HotSpot contract assay)
# 382 unique human kinases [11] = target: T11, 382 unique human kinases (Homo sapiens, UniProt P10721, D816V/V560G); settings: c-Kit (V560G/D816V), [ATP] 20 µM, compound 10 uM; for remaining activity at 10 µM: read-out: % Enzyme Activity (relative to DMSO controls)
# T11 construct: purchased Reaction Biology (HotSpot contract assay)
# 382 unique human kinases [12] = target: T12, 382 unique human kinases (Homo sapiens, UniProt Q9HAZ1); settings: CLK4, [ATP] 2.5 µM, compound 10 uM; for remaining activity at 10 µM: read-out: % Enzyme Activity (relative to DMSO controls)
# T12 construct: purchased Reaction Biology (HotSpot contract assay)
# 382 unique human kinases [13] = target: T13, 382 unique human kinases (Homo sapiens, UniProt Q9UQM7); settings: CAMK2a, 10 uM; for remaining activity at 10 µM: read-out: % Enzyme Activity (relative to DMSO controls)
# T13 construct: purchased Reaction Biology (HotSpot contract assay)
# 382 unique human kinases [14] = target: T14, 382 unique human kinases (Homo sapiens, UniProt P42684); settings: ABL2/ARG, [ATP] 30 µM
# T14 construct: purchased Reaction Biology (HotSpot contract assay)
# 382 unique human kinases [15] = target: T15, 382 unique human kinases (Homo sapiens, UniProt Q86V86); settings: PIM3, [ATP] 20 µM
# T15 construct: purchased Reaction Biology (HotSpot contract assay)
# [16] = kinase CDK5/p25, compound 10 uM
# [17] = compound 10 uM, read-out: % Enzyme Activity (relative to DMSO controls)
# [18] = compound 1 uM, read-out: % Enzyme Activity (relative to DMSO controls)
# T6 sequence (Q15569 whole entry): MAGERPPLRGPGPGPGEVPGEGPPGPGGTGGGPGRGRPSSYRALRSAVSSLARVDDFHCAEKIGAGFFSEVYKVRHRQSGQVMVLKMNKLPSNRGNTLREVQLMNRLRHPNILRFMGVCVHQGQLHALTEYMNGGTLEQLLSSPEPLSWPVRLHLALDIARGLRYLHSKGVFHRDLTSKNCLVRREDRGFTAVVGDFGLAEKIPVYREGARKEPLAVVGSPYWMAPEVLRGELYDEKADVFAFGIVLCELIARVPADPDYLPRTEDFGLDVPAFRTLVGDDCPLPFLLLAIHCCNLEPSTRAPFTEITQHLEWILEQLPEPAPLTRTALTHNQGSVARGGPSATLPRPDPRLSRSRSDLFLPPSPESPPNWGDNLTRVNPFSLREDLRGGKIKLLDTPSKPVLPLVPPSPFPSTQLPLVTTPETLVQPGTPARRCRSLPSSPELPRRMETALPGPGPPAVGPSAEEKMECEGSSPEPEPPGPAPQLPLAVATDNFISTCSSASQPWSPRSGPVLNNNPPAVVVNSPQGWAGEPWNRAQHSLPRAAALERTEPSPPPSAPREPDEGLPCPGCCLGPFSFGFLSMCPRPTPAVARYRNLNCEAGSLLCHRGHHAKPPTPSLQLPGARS
# T4 sequence (Q9UKE5 whole entry): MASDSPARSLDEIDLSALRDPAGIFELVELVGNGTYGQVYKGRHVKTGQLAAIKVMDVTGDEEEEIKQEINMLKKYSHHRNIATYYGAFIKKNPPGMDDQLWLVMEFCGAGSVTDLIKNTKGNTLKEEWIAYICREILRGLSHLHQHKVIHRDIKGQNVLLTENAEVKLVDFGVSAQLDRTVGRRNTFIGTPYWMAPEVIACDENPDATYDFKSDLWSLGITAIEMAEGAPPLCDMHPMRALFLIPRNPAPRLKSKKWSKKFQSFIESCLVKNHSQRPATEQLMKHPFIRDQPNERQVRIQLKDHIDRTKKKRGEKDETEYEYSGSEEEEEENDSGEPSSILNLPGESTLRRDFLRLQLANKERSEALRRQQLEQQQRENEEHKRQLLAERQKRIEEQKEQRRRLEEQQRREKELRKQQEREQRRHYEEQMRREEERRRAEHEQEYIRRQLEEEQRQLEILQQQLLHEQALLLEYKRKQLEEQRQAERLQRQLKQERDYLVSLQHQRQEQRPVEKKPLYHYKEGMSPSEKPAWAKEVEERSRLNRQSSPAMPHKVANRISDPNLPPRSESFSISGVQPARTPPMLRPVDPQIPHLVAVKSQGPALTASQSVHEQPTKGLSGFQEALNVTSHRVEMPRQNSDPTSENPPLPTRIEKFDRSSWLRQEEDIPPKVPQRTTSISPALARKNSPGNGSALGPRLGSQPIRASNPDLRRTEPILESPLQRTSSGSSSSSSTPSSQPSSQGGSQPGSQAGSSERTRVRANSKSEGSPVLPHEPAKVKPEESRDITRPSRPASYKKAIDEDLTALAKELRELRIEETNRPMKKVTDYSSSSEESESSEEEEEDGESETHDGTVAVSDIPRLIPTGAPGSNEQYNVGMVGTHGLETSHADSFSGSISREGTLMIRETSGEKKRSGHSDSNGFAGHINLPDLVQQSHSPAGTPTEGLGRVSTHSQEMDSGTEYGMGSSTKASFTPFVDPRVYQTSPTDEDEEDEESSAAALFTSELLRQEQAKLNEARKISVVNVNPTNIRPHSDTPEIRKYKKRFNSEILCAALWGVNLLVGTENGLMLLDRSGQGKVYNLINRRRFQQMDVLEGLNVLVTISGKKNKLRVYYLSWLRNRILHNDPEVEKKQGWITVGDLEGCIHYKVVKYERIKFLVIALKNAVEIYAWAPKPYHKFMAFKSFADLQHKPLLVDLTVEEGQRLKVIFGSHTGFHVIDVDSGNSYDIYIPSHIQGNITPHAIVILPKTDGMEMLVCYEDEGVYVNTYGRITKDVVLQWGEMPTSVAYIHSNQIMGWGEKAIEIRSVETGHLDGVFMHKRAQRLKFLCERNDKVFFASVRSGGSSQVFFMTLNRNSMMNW
# T8 sequence (P49137 whole entry): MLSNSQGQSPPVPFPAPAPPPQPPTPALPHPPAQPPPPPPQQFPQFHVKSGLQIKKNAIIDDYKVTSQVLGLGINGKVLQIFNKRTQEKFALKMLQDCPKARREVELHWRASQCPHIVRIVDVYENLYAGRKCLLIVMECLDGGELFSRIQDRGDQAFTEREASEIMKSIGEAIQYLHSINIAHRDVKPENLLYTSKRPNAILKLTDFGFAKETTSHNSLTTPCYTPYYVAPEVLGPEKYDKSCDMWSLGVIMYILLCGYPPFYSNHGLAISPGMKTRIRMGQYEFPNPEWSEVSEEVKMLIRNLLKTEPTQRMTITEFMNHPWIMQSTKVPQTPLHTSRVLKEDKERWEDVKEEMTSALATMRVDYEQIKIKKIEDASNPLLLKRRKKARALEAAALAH
# T12 sequence (Q9HAZ1 whole entry): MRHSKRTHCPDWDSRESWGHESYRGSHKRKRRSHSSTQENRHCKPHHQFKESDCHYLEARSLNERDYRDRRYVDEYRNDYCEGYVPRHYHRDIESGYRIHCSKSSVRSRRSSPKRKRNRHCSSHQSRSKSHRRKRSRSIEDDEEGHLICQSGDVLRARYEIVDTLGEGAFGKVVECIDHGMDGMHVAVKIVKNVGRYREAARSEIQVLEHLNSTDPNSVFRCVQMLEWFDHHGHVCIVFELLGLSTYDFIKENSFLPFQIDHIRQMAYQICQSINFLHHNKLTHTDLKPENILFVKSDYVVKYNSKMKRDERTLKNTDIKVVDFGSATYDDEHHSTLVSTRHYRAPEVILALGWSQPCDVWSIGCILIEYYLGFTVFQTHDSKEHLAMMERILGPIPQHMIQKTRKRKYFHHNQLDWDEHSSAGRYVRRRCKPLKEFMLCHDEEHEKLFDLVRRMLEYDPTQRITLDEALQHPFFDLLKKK
# T11 sequence (P10721 26-976 V560G/D816V): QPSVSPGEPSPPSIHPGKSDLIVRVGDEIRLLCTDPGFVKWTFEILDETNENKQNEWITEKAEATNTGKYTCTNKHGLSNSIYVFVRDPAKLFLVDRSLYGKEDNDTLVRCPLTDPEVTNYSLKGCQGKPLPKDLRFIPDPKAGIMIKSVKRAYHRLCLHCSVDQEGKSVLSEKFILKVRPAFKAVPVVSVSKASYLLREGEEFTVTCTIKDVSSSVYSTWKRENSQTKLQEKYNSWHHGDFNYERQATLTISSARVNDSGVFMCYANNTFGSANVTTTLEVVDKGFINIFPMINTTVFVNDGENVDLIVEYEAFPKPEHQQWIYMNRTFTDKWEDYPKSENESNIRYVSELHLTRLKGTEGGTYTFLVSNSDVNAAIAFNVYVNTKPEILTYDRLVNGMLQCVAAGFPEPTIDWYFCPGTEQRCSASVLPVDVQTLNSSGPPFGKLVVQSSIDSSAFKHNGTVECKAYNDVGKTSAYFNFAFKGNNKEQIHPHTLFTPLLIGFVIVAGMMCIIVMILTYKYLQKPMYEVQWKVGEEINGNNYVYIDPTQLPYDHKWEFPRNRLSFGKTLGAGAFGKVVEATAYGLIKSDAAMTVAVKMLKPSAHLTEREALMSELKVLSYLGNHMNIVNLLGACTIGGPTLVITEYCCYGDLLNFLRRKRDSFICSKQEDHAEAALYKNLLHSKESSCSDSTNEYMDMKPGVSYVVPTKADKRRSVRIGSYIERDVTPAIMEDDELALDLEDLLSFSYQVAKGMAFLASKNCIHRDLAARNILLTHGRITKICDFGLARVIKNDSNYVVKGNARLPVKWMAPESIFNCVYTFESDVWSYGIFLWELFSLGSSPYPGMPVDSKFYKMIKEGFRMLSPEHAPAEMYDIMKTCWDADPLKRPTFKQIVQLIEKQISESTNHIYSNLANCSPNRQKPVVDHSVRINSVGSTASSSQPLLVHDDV
# T3 sequence (O96017 whole entry): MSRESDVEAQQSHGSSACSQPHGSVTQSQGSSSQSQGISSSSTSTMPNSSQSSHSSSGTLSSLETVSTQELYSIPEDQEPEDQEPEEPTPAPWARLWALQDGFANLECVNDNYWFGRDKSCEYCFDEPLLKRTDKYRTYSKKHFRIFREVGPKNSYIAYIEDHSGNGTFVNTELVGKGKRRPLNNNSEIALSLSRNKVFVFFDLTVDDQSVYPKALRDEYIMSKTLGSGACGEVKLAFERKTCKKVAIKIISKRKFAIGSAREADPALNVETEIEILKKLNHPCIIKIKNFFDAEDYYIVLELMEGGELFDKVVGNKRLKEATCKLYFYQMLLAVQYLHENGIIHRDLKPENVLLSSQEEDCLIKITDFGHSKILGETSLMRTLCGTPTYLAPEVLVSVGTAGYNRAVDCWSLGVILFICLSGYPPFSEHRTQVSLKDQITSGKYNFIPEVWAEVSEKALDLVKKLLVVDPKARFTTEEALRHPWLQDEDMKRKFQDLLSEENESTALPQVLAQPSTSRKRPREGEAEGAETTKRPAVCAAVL
# T10 sequence (Q00535 whole entry): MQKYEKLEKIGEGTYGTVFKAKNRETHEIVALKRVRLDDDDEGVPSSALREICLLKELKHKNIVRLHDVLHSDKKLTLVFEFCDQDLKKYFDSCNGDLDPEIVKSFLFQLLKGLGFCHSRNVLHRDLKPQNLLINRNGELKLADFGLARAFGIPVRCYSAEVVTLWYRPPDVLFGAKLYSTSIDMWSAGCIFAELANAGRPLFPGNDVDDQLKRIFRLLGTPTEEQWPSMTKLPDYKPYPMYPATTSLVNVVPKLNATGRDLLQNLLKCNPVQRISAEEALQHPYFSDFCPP
Compound,remaining activity at 10 µM (382 unique human kinases [1]) [%],remaining activity at 10 µM (382 unique human kinases [2]) [%],remaining activity at 10 µM (382 unique human kinases [3]) [%],remaining activity at 10 µM (382 unique human kinases [4]) [%],remaining activity at 10 µM (382 unique human kinases [5]) [%],remaining activity at 10 µM (382 unique human kinases [6]) [%],remaining activity at 10 µM (382 unique human kinases [7]) [%],remaining activity at 10 µM (382 unique human kinases [8]) [%],remaining activity at 10 µM (382 unique human kinases [9]) [%],"remaining activity at 10 µM (382 unique human kinases [10]; CDK5/p35, 10 uM) [%]",remaining activity at 10 µM (382 unique human kinases [10]; [16]) [%],remaining activity at 10 µM (382 unique human kinases [11]) [%],remaining activity at 10 µM (382 unique human kinases [12]) [%],remaining activity at 10 µM (382 unique human kinases [13]) [%],remaining activity at 10 µM (382 unique human kinases [14]; [17]) [%],remaining activity at 10 µM (382 unique human kinases [15]; [17]) [%],also measured
CC(C)c1cc(-c2n[nH]c(=O)n2-c2ccc3c(ccn3C)c2)c(O)cc1O [Ganetespib (STA9090)],93.1,84.5,84.6,62.6,80.6,101,82.8,102,75.6,70.1,80.9,,,,,,
CCNC(=O)c1noc(-c2cc(C(C)C)c(O)cc2O)c1-c1ccc(CN2CCOCC2)cc1 [Luminespib],,,,,,,,,,,,61.7,72.1,104,8.16,97.5,% Enzyme Activity (relative to DMSO controls) (382 unique human kinases [11]): 61.63%; % Enzyme Activity (relative to DMSO controls) (382 unique human kinases [12]): 71.69%; % Enzyme Activity (relative to DMSO controls) (382 unique human kinases [13]): 102.76%; % Enzyme Activity (relative to DMSO controls) (382 unique human kinases [14]; compound 10 uM): 7.82%; % Enzyme Activity (relative to DMSO controls) (382 unique human kinases [15]; compound 10 uM): 94.11%
CCNC(=O)c1noc(-c2cc(C(C)C)c(O)cc2O)c1-c1ccc(CN2CCOCC2)cc1 [Luminespib (AUY-922)],147,94.4,104,96.6,93.5,104,83.9,106,114,103,102,,,,,,"% Enzyme Activity (relative to DMSO controls) (382 unique human kinases [1]): 144.69%; % Enzyme Activity (relative to DMSO controls) (382 unique human kinases [2]): 94.03%; % Enzyme Activity (relative to DMSO controls) (382 unique human kinases [3]): 102.76%; % Enzyme Activity (relative to DMSO controls) (382 unique human kinases [4]): 95.71%; % Enzyme Activity (relative to DMSO controls) (382 unique human kinases [5]): 91.62%; % Enzyme Activity (relative to DMSO controls) (382 unique human kinases [6]): 104.01%; % Enzyme Activity (relative to DMSO controls) (382 unique human kinases [7]): 83.62%; % Enzyme Activity (relative to DMSO controls) (382 unique human kinases [8]): 105.08%; % Enzyme Activity (relative to DMSO controls) (382 unique human kinases [9]): 113.14%; % Enzyme Activity (relative to DMSO controls) (382 unique human kinases [10]; CDK5/p35, 10 uM): 102.70%; % Enzyme Activity (relative to DMSO controls) (382 unique human kinases [10]; [16]): 102.12%"
CC(C)c1cc(-c2n[nH]c(=O)n2-c2ccc3c(ccn3C)c2)c(O)cc1O [Ganetespib],,,,,,,,,,,,24.3,20.7,91.1,1.12,14.3,remaining activity at 1 µM (382 unique human kinases [14]; [18]): 12.9%; remaining activity at 1 µM (382 unique human kinases [15]; [18]): 61.1%
